{"source": "patent US7488733B2", "about": "“6-arylamino-5-cyano-4-pyrimidinones as pde9a inhibitors” (Boehringer Ingelheim International GmbH, priority 2003, dated 2009)", "key": {"PDE9A [1]": {"molecular_target": "T1, PDE9A (Homo sapiens, UniProt O76083)", "T1 sequence (O76083 whole entry)": "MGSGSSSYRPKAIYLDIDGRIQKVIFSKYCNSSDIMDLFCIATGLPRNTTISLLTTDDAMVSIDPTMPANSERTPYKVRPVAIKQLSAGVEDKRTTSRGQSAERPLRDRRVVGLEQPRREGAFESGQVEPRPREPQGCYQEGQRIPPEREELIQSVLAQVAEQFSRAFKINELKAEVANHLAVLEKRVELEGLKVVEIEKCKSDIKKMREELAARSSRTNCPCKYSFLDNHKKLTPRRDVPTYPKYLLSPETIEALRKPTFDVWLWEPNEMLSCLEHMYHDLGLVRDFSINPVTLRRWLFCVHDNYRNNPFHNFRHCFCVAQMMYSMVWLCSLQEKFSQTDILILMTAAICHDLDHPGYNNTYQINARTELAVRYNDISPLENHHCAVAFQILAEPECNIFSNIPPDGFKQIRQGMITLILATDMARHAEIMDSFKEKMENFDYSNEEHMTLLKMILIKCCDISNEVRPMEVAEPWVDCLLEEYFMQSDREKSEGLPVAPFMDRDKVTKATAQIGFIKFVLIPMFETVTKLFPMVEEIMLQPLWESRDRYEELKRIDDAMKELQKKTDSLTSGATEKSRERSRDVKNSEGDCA", "assay": "PDE9A inhibition (scintillation proximity assay)", "format": "biochemical", "design": "made in house; host or cells: Sf9 insect cells, pFASTBAC baculovirus", "details": "recombinant PDE9A, Table 2; read-out: PDE9A-inhibiting effect IC50", "procedure": "The test substances are dissolved in 100% DMSO and serially diluted to determine their in vitro effect on PDE 9A. […] 2 μL portions of the diluted substance solutions are introduced into the wells of microtiter plates (Isoplate; Wallac Inc., Atlanta, Ga.). Then 50 μL of a dilution of the PDE9A preparation described above are added. The dilution of the PDE9A preparation is chosen so that less than 70% of the substrate is converted during the subsequent incubation (typical dilution: 1:10 000; dilution buffer: 50 mM Tris/HCl pH 7.5, 8.3 mM MgCl2, 1.7 mM EDTA, 0.2% BSA). The substrate, [8-^3H] guanosine 3′,5′-cyclic phosphate (1 μCi/μL; Amersham Pharmacia Biotech., Piscataway, N.J.) is diluted 1:2000 with assay buffer (50 mM Tris/HCl pH 7.5, 8.3 mM MgCl2, 1.7 mM EDTA) to a concentration of 0.0005 μCi/μL. The enzyme reaction is finally started by adding 50 μL (0.025 μCi) of the diluted substrate. […] Immediately thereafter, 25 μL of a suspension containing 18 mg/mL Yttrium Scintillation Proximity Beads (Amersham Pharmacia Biotech., Piscataway, N.J.) are added. The microtiter plates are sealed with a film and left to stand at room temperature for 60 min. The plates are then measured for 30 s per well in a Microbeta scintillation counter (Wallac Inc., Atlanta, Ga.). IC50 values are determined from the graphical plot of the substance concentration versus the percentage inhibition."}, "PDE8A": {"molecular_target": "T2, PDE8A (Homo sapiens, UniProt O60658)", "T2 construct": "made in house; host or cells: Sf9 insect cells, pFASTBAC baculovirus", "assay": "PDE8A inhibition", "format": "biochemical", "details": "human isoenzyme", "excerpt": "(§1) Recombinant PDE1C (GenBank/EMBL Accession Number: NM_005020, Loughney et al. J. Biol. Chem. 1996 271, 796-806), PDE2A (GenBank/EMBL Accession Number: NM_002599, Rosman et al. Gene 1997 191, 89-95), PDE3B (GenBank/EMBL Accession Number: NM_000922, Miki et al. Genomics 1996, 36, 476-485), PDE4B (GenBank/EMBL Accession Number: NM_002600, Obernolte et al. Gene. 1993, 129, 239-247), PDE5A (GenBank/EMBL Accession Number: NM_001083, Loughney et al. Gene 1998, 216, 139-147), PDE7B (GenBank/EMBL Accession Number: NM_018945, Hetman et al. Proc. Natl. Acad. Sci. U.S.A. 2000, 97, 472-476), PDE8A (GenBank/EMBL Accession Number: AF—056490, Fisher et al. Biochem. Biophys. Res. Commun. […]\n(§2) The test substances are dissolved in 100% DMSO and serially diluted to determine their in vitro effect on PDE 9A. […] The plates are then measured for 30 s per well in a Microbeta scintillation counter (Wallac Inc., Atlanta, Ga.). IC50 values are determined from the graphical plot of the substance concentration versus the percentage inhibition.\n(§3) The in vitro effect of test substances on recombinant PDE3B, PDE4B, PDE7B, PDE8A, PDE10A and PDE11A is determined in accordance with the assay protocol described above for PDE 9A with the following adaptations: [5′,8-^3H] adenosine 3′,5′-cyclic phosphate (1 μCi/μL; Amersham Pharmacia Biotech., Piscataway, N.J.) is used as substrate. […]"}, "PDE2A": {"molecular_target": "T3, PDE2A (Homo sapiens, UniProt O00408)", "T3 construct": "made in house; host or cells: Sf9 insect cells, pFASTBAC baculovirus", "T3 sequence (O00408 whole entry)": "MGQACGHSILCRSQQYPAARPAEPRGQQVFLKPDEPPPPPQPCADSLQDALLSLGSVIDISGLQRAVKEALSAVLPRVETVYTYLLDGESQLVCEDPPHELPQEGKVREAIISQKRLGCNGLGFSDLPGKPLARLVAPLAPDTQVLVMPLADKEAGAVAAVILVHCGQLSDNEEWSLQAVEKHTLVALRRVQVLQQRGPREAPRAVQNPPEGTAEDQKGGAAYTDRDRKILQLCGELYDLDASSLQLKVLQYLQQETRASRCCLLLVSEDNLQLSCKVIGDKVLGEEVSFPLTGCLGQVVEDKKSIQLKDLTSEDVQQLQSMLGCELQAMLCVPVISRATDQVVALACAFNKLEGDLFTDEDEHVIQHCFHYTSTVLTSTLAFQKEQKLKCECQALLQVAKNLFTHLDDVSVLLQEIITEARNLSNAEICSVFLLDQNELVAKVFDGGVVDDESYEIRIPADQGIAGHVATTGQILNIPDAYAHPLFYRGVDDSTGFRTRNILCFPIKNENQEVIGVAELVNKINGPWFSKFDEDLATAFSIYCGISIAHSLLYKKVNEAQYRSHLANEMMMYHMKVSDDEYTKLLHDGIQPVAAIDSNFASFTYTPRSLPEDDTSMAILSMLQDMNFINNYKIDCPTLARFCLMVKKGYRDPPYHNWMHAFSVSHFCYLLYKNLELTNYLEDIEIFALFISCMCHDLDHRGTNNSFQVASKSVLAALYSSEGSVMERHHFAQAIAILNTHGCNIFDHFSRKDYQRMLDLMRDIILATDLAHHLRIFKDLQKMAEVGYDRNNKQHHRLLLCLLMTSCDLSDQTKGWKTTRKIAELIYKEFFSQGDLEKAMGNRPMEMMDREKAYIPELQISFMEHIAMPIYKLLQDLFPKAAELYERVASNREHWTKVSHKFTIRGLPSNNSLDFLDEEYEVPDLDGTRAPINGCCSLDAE", "assay": "PDE2A inhibition", "format": "biochemical", "details": "human isoenzyme", "excerpt": "as §1, §2, §3"}, "PDE10A": {"molecular_target": "T4, PDE10A (Homo sapiens, UniProt Q9Y233)", "T4 construct": "made in house; host or cells: Sf9 insect cells, pFASTBAC baculovirus", "T4 sequence (Q9Y233 1-779 isoform Q9Y233-1)": "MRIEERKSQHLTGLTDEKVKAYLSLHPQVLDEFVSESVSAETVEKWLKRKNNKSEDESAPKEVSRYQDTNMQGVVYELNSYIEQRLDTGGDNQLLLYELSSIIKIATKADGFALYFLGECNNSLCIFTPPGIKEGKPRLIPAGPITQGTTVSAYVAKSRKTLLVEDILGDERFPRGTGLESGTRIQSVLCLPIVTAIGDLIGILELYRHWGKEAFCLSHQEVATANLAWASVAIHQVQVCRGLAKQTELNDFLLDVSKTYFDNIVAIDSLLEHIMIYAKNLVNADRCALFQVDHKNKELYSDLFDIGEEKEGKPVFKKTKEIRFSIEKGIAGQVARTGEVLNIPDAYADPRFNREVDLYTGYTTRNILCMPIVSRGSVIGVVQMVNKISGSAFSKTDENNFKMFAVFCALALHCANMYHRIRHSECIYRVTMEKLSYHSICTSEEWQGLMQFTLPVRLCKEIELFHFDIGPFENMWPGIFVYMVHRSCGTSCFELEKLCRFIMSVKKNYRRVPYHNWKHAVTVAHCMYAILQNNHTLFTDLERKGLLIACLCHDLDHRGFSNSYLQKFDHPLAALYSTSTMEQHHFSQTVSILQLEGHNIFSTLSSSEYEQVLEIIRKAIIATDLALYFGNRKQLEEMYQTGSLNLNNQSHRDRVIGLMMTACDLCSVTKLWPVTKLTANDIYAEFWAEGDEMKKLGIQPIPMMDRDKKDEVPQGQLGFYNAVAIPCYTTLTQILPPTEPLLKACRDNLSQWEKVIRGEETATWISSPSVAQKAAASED", "assay": "PDE10A inhibition", "format": "biochemical", "details": "human isoenzyme", "excerpt": "as §1, §2, §3"}, "PDE5A": {"molecular_target": "T5, PDE5A (Homo sapiens, UniProt O76074)", "T5 construct": "made in house; host or cells: Sf9 insect cells, pFASTBAC baculovirus", "assay": "PDE5A inhibition", "format": "biochemical", "details": "human isoenzyme", "excerpt": "as §1, §2, §3"}, "PDE7A": {"molecular_target": "T6, PDE7A (Homo sapiens, UniProt Q9NP56)", "T6 construct": "made in house; host or cells: Sf9 insect cells, pFASTBAC baculovirus", "T6 sequence (Q9NP56 whole entry)": "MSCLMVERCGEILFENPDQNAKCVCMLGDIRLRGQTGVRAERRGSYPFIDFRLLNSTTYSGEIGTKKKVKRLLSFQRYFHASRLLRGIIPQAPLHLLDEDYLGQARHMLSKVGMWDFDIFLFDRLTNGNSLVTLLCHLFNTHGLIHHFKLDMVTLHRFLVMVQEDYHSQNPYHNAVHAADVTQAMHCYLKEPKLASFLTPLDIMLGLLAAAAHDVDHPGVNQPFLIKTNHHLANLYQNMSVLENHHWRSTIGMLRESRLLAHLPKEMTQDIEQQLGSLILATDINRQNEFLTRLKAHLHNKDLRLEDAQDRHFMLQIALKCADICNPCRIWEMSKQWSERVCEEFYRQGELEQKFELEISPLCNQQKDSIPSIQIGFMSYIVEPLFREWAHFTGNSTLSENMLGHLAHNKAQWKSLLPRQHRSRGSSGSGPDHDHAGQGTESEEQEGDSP", "assay": "PDE7A inhibition", "format": "biochemical", "details": "human isoenzyme"}, "PDE4B": {"molecular_target": "PDE4B (Homo sapiens, UniProt Q07343)", "sequence (Q07343 212-736 limits assumed)": "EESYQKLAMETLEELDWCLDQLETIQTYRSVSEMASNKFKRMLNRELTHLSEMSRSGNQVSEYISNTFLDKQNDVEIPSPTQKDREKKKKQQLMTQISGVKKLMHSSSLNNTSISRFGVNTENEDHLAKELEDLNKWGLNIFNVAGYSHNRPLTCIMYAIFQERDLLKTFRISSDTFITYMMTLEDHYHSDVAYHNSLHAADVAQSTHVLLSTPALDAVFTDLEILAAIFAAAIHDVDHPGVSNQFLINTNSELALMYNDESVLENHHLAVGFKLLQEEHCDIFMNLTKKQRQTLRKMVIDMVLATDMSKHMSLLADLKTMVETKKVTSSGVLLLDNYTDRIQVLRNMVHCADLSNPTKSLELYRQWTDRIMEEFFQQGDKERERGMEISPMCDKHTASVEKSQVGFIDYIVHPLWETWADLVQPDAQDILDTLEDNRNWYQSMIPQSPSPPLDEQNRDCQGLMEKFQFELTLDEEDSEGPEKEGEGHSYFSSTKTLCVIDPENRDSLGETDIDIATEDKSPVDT", "assay": "PDE4B inhibition", "format": "biochemical", "details": "human isoenzyme", "excerpt": "as §1, §2, §3"}, "PDE1C": {"molecular_target": "T7, PDE1C (Homo sapiens, UniProt Q14123)", "T7 construct": "made in house; host or cells: Sf9 insect cells, pFASTBAC baculovirus", "assay": "PDE1C inhibition", "format": "biochemical", "details": "human isoenzyme", "excerpt": "as §1, §2, §3"}, "PDE3B": {"molecular_target": "T8, PDE3B (Homo sapiens, UniProt Q13370)", "T8 construct": "made in house; host or cells: Sf9 insect cells, pFASTBAC baculovirus", "T8 sequence (Q13370 whole entry)": "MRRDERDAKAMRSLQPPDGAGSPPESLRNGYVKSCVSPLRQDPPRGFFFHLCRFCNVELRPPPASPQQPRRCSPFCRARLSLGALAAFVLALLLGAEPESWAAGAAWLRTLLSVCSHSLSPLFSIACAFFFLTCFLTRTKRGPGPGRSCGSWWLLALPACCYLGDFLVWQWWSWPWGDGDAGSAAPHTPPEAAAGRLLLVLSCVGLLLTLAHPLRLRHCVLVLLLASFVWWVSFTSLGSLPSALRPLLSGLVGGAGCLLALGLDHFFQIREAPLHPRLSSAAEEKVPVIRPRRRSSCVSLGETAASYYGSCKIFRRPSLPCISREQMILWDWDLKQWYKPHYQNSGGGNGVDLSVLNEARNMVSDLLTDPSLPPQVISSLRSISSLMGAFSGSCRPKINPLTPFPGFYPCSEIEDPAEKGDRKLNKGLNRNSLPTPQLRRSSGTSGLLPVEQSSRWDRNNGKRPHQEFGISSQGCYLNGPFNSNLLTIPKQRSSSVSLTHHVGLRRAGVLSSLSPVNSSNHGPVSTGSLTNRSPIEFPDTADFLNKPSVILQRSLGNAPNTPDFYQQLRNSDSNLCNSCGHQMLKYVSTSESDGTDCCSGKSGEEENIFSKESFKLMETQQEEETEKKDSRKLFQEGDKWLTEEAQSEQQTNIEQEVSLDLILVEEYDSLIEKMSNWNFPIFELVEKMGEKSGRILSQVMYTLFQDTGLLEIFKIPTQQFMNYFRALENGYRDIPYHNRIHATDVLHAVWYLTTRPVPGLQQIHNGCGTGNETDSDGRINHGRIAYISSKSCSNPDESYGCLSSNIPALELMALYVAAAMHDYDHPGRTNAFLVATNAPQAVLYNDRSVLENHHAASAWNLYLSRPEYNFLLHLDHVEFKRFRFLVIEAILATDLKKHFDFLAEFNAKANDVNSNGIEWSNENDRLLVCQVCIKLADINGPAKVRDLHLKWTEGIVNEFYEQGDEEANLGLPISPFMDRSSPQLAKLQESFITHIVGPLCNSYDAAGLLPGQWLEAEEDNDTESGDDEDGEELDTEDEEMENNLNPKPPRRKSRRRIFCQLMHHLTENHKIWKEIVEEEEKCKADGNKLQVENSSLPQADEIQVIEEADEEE", "assay": "PDE3B inhibition", "format": "biochemical", "details": "human isoenzyme", "excerpt": "as §1, §2, §3"}, "PDE9A [2]": {"molecular_target": "T1, PDE9A", "details": "concentrations of up to 100 μM; cited from earlier work"}, "Murine PDE9A": {"molecular_target": "T9, Murine PDE9A (Mus musculus, UniProt O70628)", "T9 sequence (O70628 1-534)": "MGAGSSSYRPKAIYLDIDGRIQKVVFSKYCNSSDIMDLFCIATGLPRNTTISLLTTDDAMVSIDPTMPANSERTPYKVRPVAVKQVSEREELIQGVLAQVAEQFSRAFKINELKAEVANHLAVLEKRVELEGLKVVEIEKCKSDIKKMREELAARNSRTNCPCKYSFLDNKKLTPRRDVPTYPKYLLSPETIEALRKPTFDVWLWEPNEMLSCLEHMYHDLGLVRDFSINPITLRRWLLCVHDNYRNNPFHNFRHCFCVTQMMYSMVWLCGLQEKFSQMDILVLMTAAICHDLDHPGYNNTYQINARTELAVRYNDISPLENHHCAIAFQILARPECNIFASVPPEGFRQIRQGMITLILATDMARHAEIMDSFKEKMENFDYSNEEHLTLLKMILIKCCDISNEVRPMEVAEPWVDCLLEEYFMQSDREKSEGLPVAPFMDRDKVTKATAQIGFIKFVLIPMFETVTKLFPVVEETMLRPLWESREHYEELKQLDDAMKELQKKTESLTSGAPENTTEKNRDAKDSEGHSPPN", "details": "concentrations below 200 μM; cited from earlier work"}}}
{"smiles": "N#Cc1c(Nc2ccc(F)cc2)nc(CC2CCCC2)[nH]c1=O", "note": "[Example 1, 2-(Cyclopentylmethyl)-4-[(fluorophenyl)amino]6-oxo-1,6-dihydro-5-pyrimidinecarbonitrile]", "values": [{"measurement": "IC50", "setting": "PDE9A [1]", "result": 75, "unit": "nM"}]}
{"smiles": "Cc1ccncc1Nc1nc(CC2CCCCC2)[nH]c(=O)c1C#N", "note": "[Example 3, 2-(Cyclohexylmethyl)-4-[(4-methyl-3-pyridinyl)amino]-6-oxo-1,6-dihydro-5-pyrimidinecarbonitrile]", "values": [{"measurement": "IC50", "setting": "PDE8A", "result": "> 4000", "unit": "nM"}, {"measurement": "IC50", "setting": "PDE2A", "result": "> 4000", "unit": "nM"}, {"measurement": "IC50", "setting": "PDE10A", "result": "> 4000", "unit": "nM"}, {"measurement": "IC50", "setting": "PDE5A", "result": 1400, "unit": "nM"}, {"measurement": "IC50", "setting": "PDE7A", "result": "> 4000", "unit": "nM"}, {"measurement": "IC50", "setting": "PDE4B", "result": "> 4000", "unit": "nM"}, {"measurement": "IC50", "setting": "PDE1C", "result": "> 4000", "unit": "nM"}, {"measurement": "IC50", "setting": "PDE3B", "result": "> 4000", "unit": "nM"}]}
{"smiles": "Cc1c(F)cccc1Nc1nc(CC2CCCC2)[nH]c(=O)c1C#N", "note": "[Example 7, 2-(Cyclopentylmethyl)-4-[(3-fluoro-2-methylphenyl)amino]-6-oxo-1,6-dihydro-5-pyrimidinecarbonitrile]", "values": [{"measurement": "IC50", "setting": "PDE9A [1]", "result": 54, "unit": "nM"}]}
{"smiles": "CCC(C)Cc1nc(Nc2ccccc2C)c(C#N)c(=O)[nH]1", "note": "(stereo not drawn) [Example 14, 2-(2-Methylbutyl)-4-[(2-methylphenyl)amino]-6-oxo-1,6-dihydro-5-pyrimidinecarbonitrile]", "values": [{"measurement": "IC50", "setting": "PDE9A [1]", "result": 75, "unit": "nM"}]}
{"smiles": "Cc1ccc(F)cc1Nc1nc(CC2CCCC2)[nH]c(=O)c1C#N", "note": "[Example 23]", "values": [{"measurement": "IC50", "setting": "PDE9A [1]", "result": 87, "unit": "nM"}]}
{"smiles": "CC(C)Cn1c(=O)n(C)c(=O)c2[nH]cnc21", "note": "[IBMX]", "values": [{"measurement": "inhibition of isolated human PDE9A", "setting": "PDE9A [2]", "result": "no inhibition"}, {"measurement": "inhibition of murine PDE9A", "setting": "Murine PDE9A", "result": "not inhibited"}]}
{"smiles": "CC(=O)Nc1ccc(-c2c[nH]c(=O)cn2)cc1", "note": "[SKF94120]", "values": [{"measurement": "inhibition of isolated human PDE9A", "setting": "PDE9A [2]", "result": "no inhibition"}]}
{"smiles": "OCCN(CCO)c1nc(N2CCCCC2)c2nc(N(CCO)CCO)nc(N3CCCCC3)c2n1", "note": "[dipyridamole]", "values": [{"measurement": "inhibition of isolated human PDE9A", "setting": "PDE9A [2]", "result": "no inhibition"}]}
{"smiles": "COc1ccc(C2CNC(=O)C2)cc1OC1CCCC1", "note": "(stereo not drawn) [rolipram]", "values": [{"measurement": "inhibition of isolated human PDE9A", "setting": "PDE9A [2]", "result": "no inhibition"}]}
{"smiles": "CCOC(=O)C1=C[C@]2(CC)CCCN3CCc4c(n1c1ccccc41)[C@@H]32", "note": "[vinpocetine]", "values": [{"measurement": "inhibition of isolated human PDE9A", "setting": "PDE9A [2]", "result": "no inhibition"}]}
